# Reference: PubChem BioAssay (NCI)
#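 Five compound concentrations were applied to cells in 96-well plates for 48 hours; endpoints were derived by simple linear interpolation of the resulting dose-response curve. TGI is the concentration that stops growth completely.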
# Assays:
# Experiment in all cases: NCI-60 cell line screen, 48 h
# MALME-3M melanoma = tested on: MALME-3M melanoma
# HS 578T breast = tested on: HS 578T breast
# M14 melanoma = tested on: M14 melanoma
# SF-539 CNS = tested on: SF-539 CNS
# NCI/ADR-RES ovarian = tested on: NCI/ADR-RES ovarian
# DU-145 prostate = tested on: DU-145 prostate
# SK-MEL-28 melanoma = tested on: SK-MEL-28 melanoma
# OVCAR-8 ovarian = tested on: OVCAR-8 ovarian
# UACC-257 melanoma = tested on: UACC-257 melanoma
# UACC-62 melanoma = tested on: UACC-62 melanoma
# A549 NSCLC = tested on: A549 NSCLC
# MOLT-4 leukemia = tested on: MOLT-4 leukemia
# EKVX NSCLC = tested on: EKVX NSCLC
# CCRF-CEM leukemia = tested on: CCRF-CEM leukemia
# K-562 leukemia = tested on: K-562 leukemia
# OVCAR-4 ovarian = tested on: OVCAR-4 ovarian
# T-47D breast = tested on: T-47D breast
# TK-10 renal = tested on: TK-10 renal
# COLO 205 colon = tested on: COLO 205 colon
# HOP-62 NSCLC = tested on: HOP-62 NSCLC
SMILES,TGI (MALME-3M melanoma) [µM],TGI (HS 578T breast) [µM],TGI (M14 melanoma) [µM],TGI (SF-539 CNS) [µM],TGI (NCI/ADR-RES ovarian) [µM],TGI (DU-145 prostate) [µM],TGI (SK-MEL-28 melanoma) [µM],TGI (OVCAR-8 ovarian) [µM],TGI (UACC-257 melanoma) [µM],TGI (UACC-62 melanoma) [µM],TGI (A549 NSCLC) [µM],TGI (MOLT-4 leukemia) [µM],TGI (EKVX NSCLC) [µM],TGI (CCRF-CEM leukemia) [µM],TGI (K-562 leukemia) [µM],TGI (OVCAR-4 ovarian) [µM],TGI (T-47D breast) [µM],TGI (TK-10 renal) [µM],TGI (COLO 205 colon) [µM],TGI (HOP-62 NSCLC) [µM]
O=C(Nc1ccccc1)OCCN=C1c2ccccc2CCc2ccccc21,57.9,51.5,45.1,34.8,72.4,91.3,28.7,> 100,54.2,26.7,> 100,31.1,> 100,55.7,60.9,> 100,45,> 100,33.1,49.4
Cc1ccc(C(=O)Oc2ccccc2)cc1N=NN(C)C,> 100,> 100,> 100,> 100,> 100,> 100,> 100,> 100,> 100,> 100,> 100,> 100,> 100,> 100,> 100,> 100,> 100,> 100,> 100,> 100
CCOC(=O)c1nc2ccc(C(F)(F)F)cc2nc1Nc1ccc(OC)cc1,> 100,> 100,> 100,90.1,> 100,> 100,> 100,> 100,> 100,> 100,> 100,> 100,> 100,> 100,> 100,49.1,> 100,> 100,> 100,63.5
COC(=O)c1ccc2c(c1)CC1(C2)Cc2ccccc2C1=O (stereo not given),67.1,> 100,38.6,> 100,68.6,> 100,38.7,> 100,35.2,,> 100,34.4,88.1,56.5,> 100,> 100,> 100,> 100,42.4,> 100
O=C1NC(N/N=C\c2ccccc2)=N/C1=C/c1ccccc1,> 100,80.7,> 100,43.5,85.9,78.8,> 100,> 100,> 100,,> 100,50,74.5,> 100,> 100,55.9,> 100,> 100,> 100,48.2
CC(C)OP(=O)(OC(C)C)C(C)(C)O,> 100,> 100,> 100,> 100,> 100,> 100,> 100,> 100,> 100,> 100,> 100,> 100,> 100,> 100,> 100,> 100,> 100,> 100,> 100,> 100
O=CNc1ccccc1OCCOc1ccccc1NC=O,> 100,> 100,> 100,> 100,> 100,> 100,> 100,> 100,> 100,> 100,> 100,> 100,> 100,> 100,> 100,> 100,> 100,> 100,> 100,> 100
CN=c1sc2nc(C#N)c(C#N)nc2n1C,36.4,> 100,> 58.9,> 70.9,59.1,> 85.4,> 85,,> 100,40.6,33.9,> 100,73.8,> 100,> 60,49.1,> 91.7,> 63.4,32.1,42.1
CC(C)(C)OC(=O)CCCCCNC(=O)CCCCCNC(=O)CCC(CN(CC(=O)OCc1ccccc1)CC(=O)OCc1ccccc1)N(CC(=O)OCc1ccccc1)CC(=O)OCc1ccccc1 (stereo not given),> 100,> 100,> 100,> 100,> 100,> 100,> 100,> 100,> 100,> 100,> 100,> 100,> 100,> 100,> 100,> 100,> 100,> 100,> 100,> 100
CC(C)(O)c1cc2c(cc1C(C)(C)O)-c1ccccc1-2,> 100,> 100,> 100,> 100,> 100,> 100,> 100,> 100,> 100,> 100,> 100,> 100,> 100,> 100,> 100,> 100,> 100,> 100,> 100,
Cn1nnc2c3c(N(CCO)CCO)ccnc3ccc21,> 100,> 100,> 100,> 100,> 100,> 100,,> 100,> 100,> 100,> 100,> 100,> 100,> 100,> 100,> 100,> 100,> 100,> 100,> 100
Nc1ccccc1C(=O)N=Nc1c(O)[nH]c2ccccc12,> 100,73.8,> 100,> 100,> 100,> 100,,> 100,> 100,> 100,> 100,> 100,> 100,> 100,> 100,> 100,> 100,> 100,> 100,> 100
COC(=O)/C=C/[C@@H]1[C@H](C)N1S(=O)(=O)c1ccc(C)cc1 (stereo not given in full),> 100,> 100,> 100,> 100,> 100,> 100,> 100,> 100,> 100,> 100,> 100,> 100,> 100,> 100,> 100,> 100,> 100,> 100,> 100,> 100
CCOP(=O)(O)C(Nc1ccc(N=Nc2ccccc2)cc1)c1cccc(C(Nc2ccc(N=Nc3ccccc3)cc2)P(=O)(O)OCC)c1 (stereo not given),> 100,> 100,> 100,> 100,> 100,> 100,93.7,> 100,> 100,78.1,> 100,60.5,> 100,96.7,40,> 100,> 100,> 100,43.2,58.5
O=[N+]([O-])c1cccc2nccc(NCCN3CCOCC3)c12,18.7,57.6,34,57.2,> 100,> 100,46.1,> 54.2,29,,43.3,> 56.5,> 53.8,> 64.8,> 56.7,25.6,> 100,> 48.4,49,35.6
O=C1NC2(CCNCC2)Oc2ccccc21,> 100,> 100,> 100,> 100,> 100,> 100,> 100,> 100,> 100,> 100,> 100,> 100,> 100,> 100,> 100,> 100,> 100,> 100,> 100,> 100
CC(C)(C)OC(=O)N1CCCC1C(=O)NC(c1ccccc1)c1ccccc1 (stereo not given),> 100,> 100,> 100,> 100,> 100,> 100,> 100,> 100,> 100,> 100,> 100,> 100,> 100,> 100,> 100,> 100,> 100,> 100,> 100,> 100
COc1ccc2nc3ccc(OC)cc3c(SCCCl)c2c1,> 100,> 100,> 21.3,> 50.5,> 58.7,> 65,> 100,> 35.2,> 100,> 77.6,> 100,16.4,> 100,16,> 46.5,> 85,> 97.2,> 100,> 72.3,> 78.3
CCOC(=O)C(=CNc1ccc(F)c(F)c1)C(=O)OCC,> 100,> 100,> 100,> 100,> 100,> 100,> 100,> 100,> 100,,> 100,> 100,> 100,> 100,> 100,> 100,> 100,> 100,> 100,> 100
CC(=O)N1C(Nc2nccs2)CCN1c1ccccc1 (stereo not given),> 10,> 10,> 10,> 10,> 10,> 10,> 10,> 10,> 10,,> 10,> 10,> 10,> 10,> 10,> 10,> 10,> 10,> 10,> 10
COc1cc2cc(C(=O)N3CC(CCl)c4ccc([N+](C)(C)Cc5ccccc5[N+](=O)[O-])cc43)[nH]c2c(OC)c1OC (stereo not given),3.59,11.7,19,5.38,34.2,> 100,11.4,> 25.5,6.75,2.76,> 100,2.74,21.3,> 23.8,12.5,12.9,12.5,> 100,14.9,18.1
CC(C)[C@H]1NC(=O)[C@H]2N=C(S[C@H]2C)[C@@H]2CCCN2C(=O)[C@H](Cc2ccccc2)NC(=O)[C@@H]2CSC(=N2)[C@@H](Cc2ccccc2)NC(=O)[C@@H]2CSC1=N2,> 50,47,> 50,> 50,> 50,> 50,> 50,> 50,> 50,> 50,> 50,29.5,> 50,46.4,23.9,> 50,> 50,> 50,> 50,> 50
O=C(NCCNCCNC(=O)c1cc(-c2ccccc2)nc2ccccc12)c1cc(-c2ccccc2)nc2ccccc12,3.33,6.86,3.12,3.99,4.18,6.56,3.25,4.54,3.92,5.77,9.13,5.52,11.7,> 100,3.99,5.98,7.62,7.96,3.8,3.26
C=CCN1CCC(c2cc(C(=O)OCC)[nH]c2-c2cc(C)no2)C1=O (stereo not given),> 100,> 100,> 100,> 100,> 100,> 100,> 100,> 100,> 100,> 100,> 100,> 100,> 100,> 100,> 100,> 100,> 100,,> 100,> 100
